Test results: patent US10774064B2 (Cadent Therapeutics, Inc., priority 2016, dated 2020)

target: T1, small-conductance Ca2+-activated K+ channels (SK channels, subtype 2) (Homo sapiens, UniProt Q9H2S1); assay: whole-cell patch-clamp of ionic current through SK2 channels in HEK293 cells (SC100); assay type: cell-based; settings: concentration that increases the basal current by 100%; HEK293 cells expressing SK2 channels
T1 construct: expressed in transfected cells; host or cells: HEK293
Outline: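 SC100, the concentration doubling basal current (a 100% increase), was taken from SK2 currents recorded by whole-cell patch-clamp in SK2-expressing HEK293 cells.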

SC100	SMILES
++ (++ means 200 nM-1000 nM)	FCc1ccn(-c2cc(OC3COC3)cc(NC3CCC(F)(F)CC3)n2)n1 [Compound 302, N-(4,4-difluorocyclohexyl)-6-(3-(fluoromethyl)-1H-pyrazol-1-yl)-4-(oxetan-3-yloxy)pyridin-2-amine]
++ (++ means 200 nM-1000 nM)	Cc1cn(-c2nc(NC3CCC(F)(F)CC3)cc(OC3COC3)n2)nc1CF [Compound 304, N-(4,4-difluorocyclohexyl)-2-(3-(fluoromethyl)-4-methyl-1H-pyrazol-1-yl)-6-(oxetan-3-yloxy)pyrimidin-4-amine]
++ (++ means 200 nM-1000 nM)	COC(=O)N1CCC(Oc2cc(NC3CCC(F)(F)CC3)nc(-n3ccc(C(F)F)n3)n2)C1 (centres unmarked) [Compound 305, methyl 3-((6-((4,4-difluorocyclohexyl)amino)-2-(3-(difluoromethyl)-1H-pyrazol-1-yl)pyrimidin-4-yl)oxy)pyrrolidine-1-carboxylate]
+ (+ means >1 uM)	COC(=O)N1CCC1COc1cc(NC2CCC(F)(F)CC2)nc(-n2ccc(CF)n2)n1 (centres unmarked) [Compound 306, methyl 2-(((6-((4,4-difluorocyclohexyl)amino)-2-(3-(fluoromethyl)-1H-pyrazol-1-yl)pyrimidin-4-yl)oxy)methyl)azetidine-1-carboxylate]
+ (+ means >1 uM)	COC(=O)N1CC(Oc2cc(NC3CCC(F)(F)CC3)nc(-n3ccc(C(C)O)n3)n2)C1 (centres unmarked) [Compound 307, methyl 3-((6-((4,4-difluorocyclohexyl)amino)-2-(3-(1-hydroxyethyl)-1H-pyrazol-1-yl)pyrimidin-4-yl)oxy)azetidine-1-carboxylate]
+ (+ means >1 uM)	CN(C)C(=O)C1CC1c1cc(NC2CCC(F)(F)CC2)nc(-n2ccc(CF)n2)n1 (centres unmarked) [Compound 308, 2-(6-((4,4-difluorocyclohexyl)amino)-2-(3-(fluoromethyl)-1H-pyrazol-1-yl)pyrimidin-4-yl)-N,N-dimethylcyclopropane-1-carboxamide]
++ (++ means 200 nM-1000 nM)	Cc1cn(-c2nc(NC3CCC(F)(F)CC3)cc(OC3CN(C(=O)C(C)(C)C)C3)n2)nc1CF [Compound 309, 1-(3-((6-((4,4-difluorocyclohexyl)amino)-2-(3-(fluoromethyl)-4-methyl-1H-pyrazol-1-yl)pyrimidin-4-yl)oxy)azetidin-1-yl)-2,2-dimethylpropan-1-one]
++ (++ means 200 nM-1000 nM)	COC(=O)N1CC(Oc2cc(NC3CCC(F)(F)CC3)nc(-n3cc(C)c(CF)n3)n2)C1 [Compound 310, methyl 3-((6-((4,4-difluorocyclohexyl)amino)-2-(3-(fluoromethyl)-4-methyl-1H-pyrazol-1-yl)pyrimidin-4-yl)oxy)azetidine-1-carboxylate]
++ (++ means 200 nM-1000 nM)	CC(=O)NCc1cc(NC2CCC(F)(F)CC2)nc(-n2ccc(CF)n2)c1 [Compound 312, N-((2-((4,4-difluorocyclohexyl)amino)-6-(3-(fluoromethyl)-1H-pyrazol-1-yl)pyridin-4-yl)methyl)acetamide]
+ (+ means >1 uM)	COC(=O)N1CCC1COc1cc(NC2CCC(F)(F)CC2)nc(-n2ccc(C(F)F)n2)n1 (centres unmarked) [Compound 314, methyl 2-(((6-((4,4-difluorocyclohexyl)amino)-2-(3-(difluoromethyl)-1H-pyrazol-1-yl)pyrimidin-4-yl)oxy)methyl)azetidine-1-carboxylate]
+ (+ means >1 uM)	CC(O)c1ccn(-c2nc(NC3CCC(F)(F)CC3)cc(OC3CN(C(=O)C(C)(C)C)C3)n2)n1 (centres unmarked) [Compound 315, 1-(3-((6-((4,4-difluorocyclohexyl)amino)-2-(3-(1-hydroxyethyl)-1H-pyrazol-1-yl)pyrimidin-4-yl)oxy)azetidin-1-yl)-2,2-dimethylpropan-1-one]
+++ (+++ means <200 nM)	CC(C)(C)C(=O)N1CC(Oc2cc(NC3CCC(F)(F)CC3)nc(-c3nc(CF)cs3)n2)C1 [Compound 316, 1-(3-((6-((4,4-difluorocyclohexyl)amino)-2-(4-(fluoromethyl)thiazol-2-yl)pyrimidin-4-yl)oxy)azetidin-1-yl)-2,2-dimethylpropan-1-one]
+++ (+++ means <200 nM)	Cc1cn(-c2nc(NC3CCC(F)(F)CC3)cc(OC3CN(C(=O)C(C)(C)C)C3)n2)nc1C(F)F [Compound 317, 1-(3-((6-((4,4-difluorocyclohexyl)amino)-2-(3-(difluoromethyl)-4-methyl-1H-pyrazol-1-yl)pyrimidin-4-yl)oxy)azetidin-1-yl)-2,2-dimethylpropan-1-one]
++ (++ means 200 nM-1000 nM)	COC(=O)N1CC(Oc2cc(NC3CCC(F)(F)CC3)nc(-n3cc(C)c(C(F)F)n3)n2)C1 [Compound 318, methyl 3-((6-((4,4-difluorocyclohexyl)amino)-2-(3-(difluoromethyl)-4-methyl-1H-pyrazol-1-yl)pyrimidin-4-yl)oxy)azetidine-1-carboxylate]
+ (+ means >1 uM)	O=C(N1CC(Oc2cc(NC3CCC(F)(F)CC3)nc(-n3ccc(CO)n3)n2)C1)C(F)(F)F [Compound 319, 1-(3-((6-((4,4-difluorocyclohexyl)amino)-2-(3-(hydroxymethyl)-1H-pyrazol-1-yl)pyrimidin-4-yl)oxy)azetidin-1-yl)-2,2,2-trifluoroethan-1-one]
++ (++ means 200 nM-1000 nM)	Cc1csc(-c2nc(NC3CCC(F)(F)CC3)cc(N3CCOCC3)n2)n1 [Compound 320, N-(4,4-difluorocyclohexyl)-2-(4-methylthiazol-2-yl)-6-morpholinopyrimidin-4-amine]
+ (+ means >1 uM)	O=C1CCCN1Cc1cc(NC2CCC(F)(F)CC2)nc(-n2ccc(CF)n2)n1 [Compound 321, 1-((6-((4,4-difluorocyclohexyl)amino)-2-(3-(fluoromethyl)-1H-pyrazol-1-yl)pyrimidin-4-yl)methyl)pyrrolidin-2-one]
++ (++ means 200 nM-1000 nM)	CC(C)(C)C(=O)N1CC(Oc2cc(NC3CCC(F)(F)CC3)nc(-c3nc(C(F)(F)F)cs3)n2)C1 [Compound 322, 1-(3-((6-((4,4-difluorocyclohexyl)amino)-2-(4-(trifluoromethyl)thiazol-2-yl)pyrimidin-4-yl)oxy)azetidin-1-yl)-2,2-dimethylpropan-1-one]
++ (++ means 200 nM-1000 nM)	O=C(N1CC(Oc2cc(NC3CCC(F)(F)CC3)nc(-c3nc(C(F)(F)F)cs3)n2)C1)C(F)(F)F [Compound 323, 1-(3-((6-((4,4-difluorocyclohexyl)amino)-2-(4-(trifluoromethyl)thiazol-2-yl)pyrimidin-4-yl)oxy)azetidin-1-yl)-2,2,2-trifluoroethan-1-one]
++ (++ means 200 nM-1000 nM)	COC(=O)N1CC(Oc2cc(NC3CCC(F)(F)CC3)nc(-c3nc(C(F)(F)F)cs3)n2)C1 [Compound 324, methyl 3-((6-((4,4-difluorocyclohexyl)amino)-2-(4-(trifluoromethyl)thiazol-2-yl)pyrimidin-4-yl)oxy)azetidine-1-carboxylate]
+ (+ means >1 uM)	CC(C)C1CC(=O)N1Cc1cc(NC2CCC(F)(F)CC2)nc(-n2ccc(CF)n2)n1 (centres unmarked) [Compound 325, 1-((6-((4,4-difluorocyclohexyl)amino)-2-(3-(fluoromethyl)-1H-pyrazol-1-yl)pyrimidin-4-yl)methyl)-4-isopropylazetidin-2-one]
++ (++ means 200 nM-1000 nM)	CC1(O)CN(c2cc(NC3CCC(F)(F)CC3)nc(-n3ccc(CF)n3)c2)C1 [Compound 326, 1-(2-((4,4-difluorocyclohexyl)amino)-6-(3-(fluoromethyl)-1H-pyrazol-1-yl)pyridin-4-yl)-3-methylazetidin-3-ol]
+ (+ means >1 uM)	CC(=O)NCc1cc(NC2CCC(F)(F)CC2)nc(-n2ccc(CF)n2)n1 [Compound 327, N-((6-((4,4-difluorocyclohexyl)amino)-2-(3-(fluoromethyl)-1H-pyrazol-1-yl)pyrimidin-4-yl)methyl)acetamide]
+ (+ means >1 uM)	O=C(NCc1cc(NC2CCC(F)(F)CC2)nc(-n2ccc(CF)n2)n1)C1CCC1 [Compound 328, N-((6-((4,4-difluorocyclohexyl)amino)-2-(3-(fluoromethyl)-1H-pyrazol-1-yl)pyrimidin-4-yl)methyl)cyclobutanecarboxamide]
++ (++ means 200 nM-1000 nM)	CC(C)(C)C(=O)N1CC(Oc2cc(NC3CCC(F)(F)CC3)nc(-c3nc(C(F)F)cs3)n2)C1 [Compound 329, 1-(3-((6-((4,4-difluorocyclohexyl)amino)-2-(4-(difluoromethyl)thiazol-2-yl)pyrimidin-4-yl)oxy)azetidin-1-yl)-2,2-dimethylpropan-1-one]
++ (++ means 200 nM-1000 nM)	COC(=O)N1CC(Oc2cc(NC3CCC(F)(F)CC3)nc(-c3nc(C(F)F)cs3)n2)C1 [Compound 330, methyl 3-((6-((4,4-difluorocyclohexyl)amino)-2-(4-(difluoromethyl)thiazol-2-yl)pyrimidin-4-yl)oxy)azetidine-1-carboxylate]
+ (+ means >1 uM)	CC1NC(c2cc(NC3CCC(F)(F)CC3)nc(-n3ccc(CF)n3)n2)=NO1 (centres unmarked) [Compound 331, N-(4,4-difluorocyclohexyl)-2-(3-(fluoromethyl)-1H-pyrazol-1-yl)-6-(5-methyl-4,5-dihydro-1,2,4-oxadiazol-3-yl)pyrimidin-4-amine]
++ (++ means 200 nM-1000 nM)	FC1(F)CCC(Nc2cc(N3CCOCC3)nc(-c3nc(C(F)(F)F)cs3)n2)CC1 [Compound 332, N-(4,4-difluorocyclohexyl)-6-morpholino-2-(4-(trifluoromethyl)thiazol-2-yl)pyrimidin-4-amine]
+ (+ means >1 uM)	O=C(NCc1cc(NC2CCC(F)(F)CC2)nc(-n2ccc(CF)n2)n1)C1COC1 [Compound 333, N-((6-((4,4-difluorocyclohexyl)amino)-2-(3-(fluoromethyl)-1H-pyrazol-1-yl)pyrimidin-4-yl)methyl)oxetane-3-carboxamide]
